Laboratory results as given in ChEMBL document CHEMBL6182882, “Evodiamine-Based Nitroreductase Responsive Theranostic Agents for Treatment of Colon Cancer” (J Med Chem, 2025).
The source made the active and inactive calls. The rule behind the calls is not given here.

What was measured:
[1] = Metabolic stability in ICR mouse liver microsomes assessed as terminal half life; format: ADME, Microsome; settings: read-out: beta t1/2
A549 [2] = experiment: Cytotoxicity against human A549 cells assessed as inhibition of cell growth incubated for 72 hrs under hypoxic conditions by CCK-8 assay; format: functional, cell-based; settings: A549, 72 h
[3] = Cytotoxicity against human HUVEC cells assessed as inhibition of cell growth incubated for 72 hrs under normoxic condition by CCK-8 assay; format: toxicity, cell-based
HCT-116 [4] = experiment: Cytotoxicity against human HCT-116 cells assessed as inhibition of cell growth incubated for 72 hrs under hypoxic conditions by CCK-8 assay; format: functional, cell-based; settings: HCT-116, 72 h
Fusobacterium nucleatum = experiment: Antibacterial activity against Fusobacterium nucleatum; format: functional
[5] = Metabolic stability in ICR mouse liver microsomes assessed as intrinsic clearance; format: ADME, Microsome; settings: read-out: CLH
[6] = Prodrug activation in phosphate buffer saline at pH 7.4 assessed as Escherichia coli nitroreductase mediated 3-fluoro-10-hydroxy-14-methyl-8,13,13b,14-tetrahydroindolo[2',3':3,4]pyrido[2,1-b]quinazolin-5(7H)-one formation by measuring fluorescence emission intensity at 25 uM incubated for 2 hrs in presence of NADH by fluorescence spectrophotometric analysis; settings: isolated protein, pH 7.4, 2 h
A549 [7] = experiment: Induction of cell cycle arrest in human A549 cells assessed as accumulation of cells at G2/M phase at 1.0 uM measured after 24 hrs by flow cytometric analysis (reference value: 3.81%); format: functional
[8] = Drug localization in nucleus of human HCT-116 cells at 25 uM incubated for 2 hrs by […] dye based confocal imaging analysis; format: ADME, subcellular; settings: hct-116, 2 h
A549 [9] = experiment: Induction of cell cycle arrest in human A549 cells assessed as accumulation of cells at G2/M phase at 0.2 uM measured after 24 hrs by flow cytometric analysis (reference value: 3.81%); format: functional
HCT-116 [10] = experiment: Induction of cell cycle arrest in human HCT-116 cells assessed as accumulation of cells at G2/M phase at 1.0 uM measured after 24 hrs by flow cytometric analysis (reference value: 18.45 %); format: functional
HCT-116 [11] = experiment: Induction of apoptosis in human HCT-116 cells assessed as apoptotic cells at 0.04 to 1.0 uM measured after 48 hrs by flow cytometric analysis (reference value: 4.57%); format: functional; settings: dose 0.04-1 µM
[12] = Drug localization in lysosome of human HCT-116 cells at 25 uM incubated for 2 hrs by Lyso-tracker red dye based confocal imaging analysis; format: ADME, subcellular; settings: hct-116, 2 h
A549 [13] = experiment: Binding affinity to NTR in human A549 cells assessed as increase in fluorescence intensity at 10 to 100 uM incubated for 2 hrs by confocal fluorescence microscopic analysis; format: cell-based; settings: dose 10-100 µM
[14] = Prodrug activation in phosphate buffer saline at pH 7.4 assessed as Escherichia coli nitroreductase mediated 3-fluoro-10-hydroxy-14-methyl-8,13,13b,14-tetrahydroindolo[2',3':3,4]pyrido[2,1-b]quinazolin-5(7H)-one formation by measuring fluorescence emission intensity at 25 uM incubated for 0.5 to 2 hrs in presence of 1 to 7 microg/ml NTR and NADH by fluorescence spectrophotometric analysis; settings: isolated protein, pH 7.4, 25 µM, time 0.5-2 hrs
HCT-116 [15] = experiment: Induction of cell cycle arrest in human HCT-116 cells assessed as accumulation of cells at S phase at 1.0 uM measured after 24 hrs by flow cytometric analysis (reference value: 33.15 %); format: functional
HCT-116 [16] = experiment: Induction of cell cycle arrest in human HCT-116 cells assessed as accumulation of cells at G2/M phase at 0.2 uM measured after 24 hrs by flow cytometric analysis (reference value: 18.45 %); format: functional
[17] = Drug localization in Mitochondria of human HCT-116 cells at 25 uM incubated for 2 hrs by Mito-tracker green dye based confocal imaging analysis; format: ADME; settings: hct-116, 2 h
HCT-116 [18] = experiment: Induction of cell cycle arrest in human HCT-116 cells assessed as accumulation of cells at S phase at 0.04 uM measured after 24 hrs by flow cytometric analysis (reference value: 33.15 %); format: functional
HCT-116 [19] = experiment: Induction of cell cycle arrest in human HCT-116 cells assessed as accumulation of cells at G1 phase at 1.0 uM measured after 24 hrs by flow cytometric analysis (reference value: 48.40 %); format: functional
[20] = Drug localization in lysosome of human A549 cells at 25 uM incubated for 2 hrs by Lyso-tracker red dye based confocal imaging analysis; format: ADME, subcellular; settings: a549, 2 h
[21] = Prodrug activation in phosphate buffer saline at pH 7.4 assessed as Escherichia coli nitroreductase mediated 3-fluoro-10-hydroxy-14-methyl-8,13,13b,14-tetrahydroindolo[2',3':3,4]pyrido[2,1-b]quinazolin-5(7H)-one formation by measuring fluorescence emission intensity at 10 uM incubated for 2 hrs in presence of 1 to 7 microg/ml NTR and NADH by fluorescence spectrophotometric analysis; settings: isolated protein, pH 7.4, 2 h
HUVEC = experiment: Binding affinity to NTR in human HUVEC cells assessed as fluorescence intensity at 10 to 100 uM incubated for 2 hrs by confocal fluorescence microscopic analysis; format: cell-based; settings: dose 10-100 µM
HCT-116 [22] = experiment: Induction of cell cycle arrest in human HCT-116 cells assessed as accumulation of cells at G2/M phase at 0.04 uM measured after 24 hrs by flow cytometric analysis (reference value: 18.45 %); format: functional
[23] = target: T1, DNA topoisomerase 1 (Homo sapiens) (UniProt P11387); experiment: Inhibition of topoisomerase 1 (unknown origin) […] activity using pBR322 DNA as substrate at 125 to 250 uM incubated for 15 mins by ethidium bromide staining based agarose gel electrophoresis; settings: dose 125-250 µM
T1 sequence (whole entry): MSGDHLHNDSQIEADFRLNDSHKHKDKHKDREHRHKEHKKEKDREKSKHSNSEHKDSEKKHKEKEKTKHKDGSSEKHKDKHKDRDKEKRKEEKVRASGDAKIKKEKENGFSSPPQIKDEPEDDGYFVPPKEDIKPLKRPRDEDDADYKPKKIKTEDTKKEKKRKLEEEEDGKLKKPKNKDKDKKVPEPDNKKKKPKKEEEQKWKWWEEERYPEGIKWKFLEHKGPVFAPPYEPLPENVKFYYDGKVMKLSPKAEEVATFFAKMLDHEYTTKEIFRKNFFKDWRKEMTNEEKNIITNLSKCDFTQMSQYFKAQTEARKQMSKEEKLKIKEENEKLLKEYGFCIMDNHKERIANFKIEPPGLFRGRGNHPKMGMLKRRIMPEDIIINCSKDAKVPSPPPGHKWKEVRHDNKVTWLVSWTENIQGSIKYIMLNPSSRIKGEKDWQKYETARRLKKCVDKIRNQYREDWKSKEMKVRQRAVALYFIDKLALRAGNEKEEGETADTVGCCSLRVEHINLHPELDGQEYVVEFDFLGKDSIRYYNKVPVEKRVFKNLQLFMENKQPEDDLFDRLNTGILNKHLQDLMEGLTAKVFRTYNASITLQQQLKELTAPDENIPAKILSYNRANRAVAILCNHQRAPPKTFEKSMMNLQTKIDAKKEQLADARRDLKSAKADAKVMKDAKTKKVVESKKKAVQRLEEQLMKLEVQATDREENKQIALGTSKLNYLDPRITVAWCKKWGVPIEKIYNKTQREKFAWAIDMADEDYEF

[24] = Drug uptake in male nude mouse tumor xenografted in human HCT-116 cells at 10 mg/kg, […] administered via tail vein and measured at 12 hrs post injection by fluorescence imaging analysis; format: ADME, organism-based, Neoplasm; settings: in vivo
[25] = Drug localization in Cell membrane of human HCT-116 cells at 25 uM incubated for 2 hrs by Dio- tracker green dye based confocal imaging analysis; format: ADME, cell membranes; settings: hct-116, 2 h
[26] = Drug uptake in male nude mouse kidney xenografted in human HCT-116 cells at 10 mg/kg, […] administered via tail vein and measured at 12 hrs post injection by fluorescence imaging analysis; format: ADME, organism-based; settings: in vivo
HCT-116 [27] = experiment: Binding affinity to NTR in human HCT-116 cells assessed as increase in fluorescence intensity at 25 uM incubated for 2 hrs under 2 to 10 % hypoxic condition by confocal fluorescence imaging based analysis; format: cell-based
HCT-116 [28] = experiment: Induction of cell cycle arrest in human HCT-116 cells assessed as accumulation of cells at S phase at 0.2 uM measured after 24 hrs by flow cytometric analysis (reference value: 33.15 %); format: functional
[29] = Drug localization in endoplasmic reticulum of human HCT-116 cells at 25 uM incubated for 2 hrs by ER-tracker red dye based confocal imaging analysis; format: ADME, subcellular; settings: hct-116, 2 h
HCT-116 [30] = experiment: Cytotoxicity against human HCT-116 cells assessed as inhibition of cell growth incubated for 72 hrs under normoxic conditions by CCK-8 assay; format: functional, cell-based; settings: HCT-116, 72 h
HCT-116 [31] = experiment: Binding affinity to NTR in human HCT-116 cells assessed as increase in fluorescence intensity at 10 to 100 uM incubated for 2 hrs by confocal fluorescence microscopic analysis; format: cell-based; settings: dose 10-100 µM
HCT-116 [32] = experiment: Antitumor activity against human HCT-116 cells xenografted in male nude mouse assessed as tumor growth inhibition at 10 mg/kg, ip administered twice daily for 14 consecutive days; format: functional; settings: read-out: TGI
HCT-116 [33] = experiment: Induction of cell cycle arrest in human HCT-116 cells assessed as accumulation of cells at G1 phase at 0.2 uM measured after 24 hrs by flow cytometric analysis (reference value: 48.40 %); format: functional
[34] = Prodrug activation in phosphate buffer saline at pH 7.4 assessed as Escherichia coli nitroreductase mediated 3-fluoro-10-hydroxy-14-methyl-8,13,13b,14-tetrahydroindolo[2',3':3,4]pyrido[2,1-b]quinazolin-5(7H)-one formation by measuring fold increase in fluorescence emission intensity at 25 uM incubated for 2 hrs in presence of NADH by fluorescence spectrophotometric analysis; settings: isolated protein, pH 7.4, 2 h
Bacteroides fragilis = experiment: Antibacterial activity against Bacteroides fragilis; format: functional
A549 [35] = experiment: Cytotoxicity against human A549 cells assessed as inhibition of cell growth incubated for 72 hrs under normoxic conditions by CCK-8 assay; format: functional, cell-based; settings: A549, 72 h
A549 [36] = experiment: Induction of apoptosis in human A549 cells assessed as apoptotic cells at 0.04 to 1.0 uM measured after 48 hrs by flow cytometric analysis (reference value: 6.44%); format: functional; settings: dose 0.04-1 µM
HCT-116 [37] = experiment: Induction of cell cycle arrest in human HCT-116 cells assessed as accumulation of cells at G1 phase at 0.04 uM measured after 24 hrs by flow cytometric analysis (reference value: 48.40 %); format: functional
A549 [38] = experiment: Binding affinity to NTR in human A549 cells assessed as increase in fluorescence intensity at 25 uM incubated for 2 hrs under 2 to 10 % hypoxic condition by confocal fluorescence imaging based analysis; format: cell-based
[39] = Toxicity in male nude mouse assessed as change in body weight at 10 mg/kg, ip administered twice daily for 14 consecutive days; format: organism-based; settings: in vivo
A549 [40] = experiment: Induction of cell cycle arrest in human A549 cells assessed as accumulation of cells at G2/M phase at 0.04 uM measured after 24 hrs by flow cytometric analysis relative to control; format: functional

SMILES: CN1c2ccc(F)cc2C(=O)N2CCc3c([nH]c4ccc(O)cc34)C21 (centres undefined)
- half-life [1]: 0.164 h
- IC50 (A549 [2]): 0.015 µM
- IC50 at 72 h [3]: 0.044 µM
- IC50 (HCT-116 [4]): 0.015 µM
- MIC50 (Fusobacterium nucleatum): > 64 µg/mL
- CLint scaled [5]: 555 mL/min/kg

SMILES: CN1c2ccc(F)cc2C(=O)N2CCc3c([nH]c4ccc(OC(=O)OCc5cc6ccc(OCc7ccc([N+](=O)[O-])cc7)cc6oc5=O)cc34)C21 (centres undefined)
- Drug metabolism [6]: metabolite_detected

SMILES: CN1c2ccc(F)cc2C(=O)N2CCc3c([nH]c4ccc(OC(=O)/C=C/C(=O)OCc5cc6ccc(OCc7ccc([N+](=O)[O-])cc7)cc6oc5=O)cc34)C21 (centres undefined)
- half-life [1]: 9.53 h
- Activity (A549 [7]): 59.51%
- Drug uptake [8]: Active
- Activity (A549 [9]): 47.03%
- Activity (HCT-116 [10]): 96.66%
- Activity (HCT-116 [11]): 13.04%
- IC50 (A549 [2]): 0.038 µM
- Drug metabolism [6]: metabolite_detected
- IC50 at 72 h [3]: 0.12 µM
- Drug uptake [12]: Active
- Activity (A549 [13]): Active
- Drug metabolism [14]: metabolite_detected
- Activity (HCT-116 [15]): 2.78%
- Activity (HCT-116 [16]): 74.9%
- Drug uptake [17]: Active
- Activity (HCT-116 [18]): 32.22%
- IC50 (HCT-116 [4]): 0.071 µM
- Activity (HCT-116 [19]): 0.56%
- Drug uptake [20]: Active
- Drug metabolism [21]: metabolite_detected
- Activity (HUVEC): Active; Weak Fluorescence Observed
- Activity (HCT-116 [22]): 24.01%
- inhibition [23]: Weak_effect
- CLint scaled [5]: 9.54 mL/min/kg
- Drug uptake [24]: Active
- Drug uptake [25]: Active
- Drug uptake [26]: Active
- Activity (HCT-116 [27]): Active
- Activity (HCT-116 [28]): 17.36%
- Drug uptake [29]: Active
- IC50 (HCT-116 [30]): 0.145 µM
- Activity (HCT-116 [31]): Active; Stronger Fluorescence Intensity Observed
- inhibition in vivo at 10 mg/kg (HCT-116 [32]): 76.1%
- Activity (HCT-116 [33]): 7.74%
- fold change (FC) [34]: 14
- MIC50 (Bacteroides fragilis): > 64 µg/mL
- IC50 (A549 [35]): 0.255 µM
- Activity (A549 [36]): 18.27%
- Activity (HCT-116 [37]): 43.77%
- Activity (A549 [38]): Active
- Activity [39]: Non-toxic
- Activity (A549 [40]): 10.87%
